Test system: HCT-15
Assay: SRB 48 h growth assay, Colon HCT-15
Type: cell-based, human
Settings: HCT-15, Colon

| SMILES | Log10 TGI50 |
| --- | --- |
| C#Cc1ccc(-n2c(/C=C/c3ccc(C(F)(F)F)cc3)nc3ncccc3c2=O)cc1 [4c, (E)-3-(4-Ethynylphenyl)-2-(4-(trifluoromethyl)styryl)pyrido[2,3-d]pyrimidin-4(3H)-one] | −5.43 |

Same assay, conditions: Homo sapiens, HCT-15, Colon, read-out: Growth Inhibition GI50

| SMILES | GI50 [µM] |
| --- | --- |
| C#Cc1ccc(-n2c(/C=C/c3ccc(C(F)(F)F)cc3)nc3ncccc3c2=O)cc1 [4c, (E)-3-(4-Ethynylphenyl)-2-(4-(trifluoromethyl)styryl)pyrido[2,3-d]pyrimidin-4(3H)-one] | 1.74 |

Same assay, conditions: Homo sapiens, HCT-15, Colon, read-out: Log10 GI50 (converted)

| SMILES | GI50 [µM] |
| --- | --- |
| C#Cc1ccc(-n2c(/C=C/c3ccc(C(F)(F)F)cc3)nc3ncccc3c2=O)cc1 [4c, (E)-3-(4-Ethynylphenyl)-2-(4-(trifluoromethyl)styryl)pyrido[2,3-d]pyrimidin-4(3H)-one] | 1.74 |

Same assay, conditions: Homo sapiens, HCT-15, Colon, read-out: Log10 LC50 (converted)

| SMILES | CC50 [µM] |
| --- | --- |
| C#Cc1ccc(-n2c(/C=C/c3ccc(C(F)(F)F)cc3)nc3ncccc3c2=O)cc1 [4c, (E)-3-(4-Ethynylphenyl)-2-(4-(trifluoromethyl)styryl)pyrido[2,3-d]pyrimidin-4(3H)-one] | 7.76 |

Test system: NCI-H460
Assay: SRB 48 h growth assay, Non-small Cell Lung NCI-H460
Type: cell-based, human
Settings: not given

| SMILES | Log10 TGI50 |
| --- | --- |
| C#Cc1ccc(-n2c(/C=C/c3ccc(C(F)(F)F)cc3)nc3ncccc3c2=O)cc1 [4c, (E)-3-(4-Ethynylphenyl)-2-(4-(trifluoromethyl)styryl)pyrido[2,3-d]pyrimidin-4(3H)-one] | −5.38 |

Same assay, conditions: Homo sapiens, read-out: Growth Inhibition GI50

| SMILES | GI50 [µM] |
| --- | --- |
| C#Cc1ccc(-n2c(/C=C/c3ccc(C(F)(F)F)cc3)nc3ncccc3c2=O)cc1 [4c, (E)-3-(4-Ethynylphenyl)-2-(4-(trifluoromethyl)styryl)pyrido[2,3-d]pyrimidin-4(3H)-one] | 1.98 |

Same assay, conditions: Homo sapiens, read-out: Log10 GI50 (converted)

| SMILES | GI50 [µM] |
| --- | --- |
| C#Cc1ccc(-n2c(/C=C/c3ccc(C(F)(F)F)cc3)nc3ncccc3c2=O)cc1 [4c, (E)-3-(4-Ethynylphenyl)-2-(4-(trifluoromethyl)styryl)pyrido[2,3-d]pyrimidin-4(3H)-one] | 2 |

Same assay, conditions: Homo sapiens, read-out: Log10 LC50 (converted)

| SMILES | LC50 [µM] |
| --- | --- |
| C#Cc1ccc(-n2c(/C=C/c3ccc(C(F)(F)F)cc3)nc3ncccc3c2=O)cc1 [4c, (E)-3-(4-Ethynylphenyl)-2-(4-(trifluoromethyl)styryl)pyrido[2,3-d]pyrimidin-4(3H)-one] | 8.71 |

Test system: T-47D
Assay: SRB 48 h growth assay, Breast T-47D
Type: cell-based, human
Settings: not given

| SMILES | Log10 TGI50 |
| --- | --- |
| C#Cc1ccc(-n2c(/C=C/c3ccc(C(F)(F)F)cc3)nc3ncccc3c2=O)cc1 [4c, (E)-3-(4-Ethynylphenyl)-2-(4-(trifluoromethyl)styryl)pyrido[2,3-d]pyrimidin-4(3H)-one] | −5.30 |

Same assay, conditions: Homo sapiens, T47D, read-out: Growth Inhibition GI50

| SMILES | GI50 [µM] |
| --- | --- |
| C#Cc1ccc(-n2c(/C=C/c3ccc(C(F)(F)F)cc3)nc3ncccc3c2=O)cc1 [4c, (E)-3-(4-Ethynylphenyl)-2-(4-(trifluoromethyl)styryl)pyrido[2,3-d]pyrimidin-4(3H)-one] | 2.02 |

Same assay, conditions: Homo sapiens, T47D, read-out: Log10 GI50 (converted)

| SMILES | GI50 [µM] |
| --- | --- |
| C#Cc1ccc(-n2c(/C=C/c3ccc(C(F)(F)F)cc3)nc3ncccc3c2=O)cc1 [4c, (E)-3-(4-Ethynylphenyl)-2-(4-(trifluoromethyl)styryl)pyrido[2,3-d]pyrimidin-4(3H)-one] | 2 |

Same assay, conditions: Homo sapiens, T47D, read-out: Log10 LC50 (converted)

| SMILES | CC50 [µM] |
| --- | --- |
| C#Cc1ccc(-n2c(/C=C/c3ccc(C(F)(F)F)cc3)nc3ncccc3c2=O)cc1 [4c, (E)-3-(4-Ethynylphenyl)-2-(4-(trifluoromethyl)styryl)pyrido[2,3-d]pyrimidin-4(3H)-one] | 28.2 |

Test system: MOLT-4
Assay: SRB 48 h growth assay, Leukemia MOLT-4
Type: cell-based, human
Settings: Homo sapiens, MOLT-4, Leukemia, read-out: Growth Inhibition GI50

| SMILES | GI50 [µM] |
| --- | --- |
| C#Cc1ccc(-n2c(/C=C/c3ccc(C(F)(F)F)cc3)nc3ncccc3c2=O)cc1 [4c, (E)-3-(4-Ethynylphenyl)-2-(4-(trifluoromethyl)styryl)pyrido[2,3-d]pyrimidin-4(3H)-one] | 3.01 |

Same assay, conditions: Homo sapiens, MOLT-4, Leukemia, read-out: Log10 GI50 (converted)

| SMILES | GI50 [µM] |
| --- | --- |
| C#Cc1ccc(-n2c(/C=C/c3ccc(C(F)(F)F)cc3)nc3ncccc3c2=O)cc1 [4c, (E)-3-(4-Ethynylphenyl)-2-(4-(trifluoromethyl)styryl)pyrido[2,3-d]pyrimidin-4(3H)-one] | 3.02 |

Same assay, conditions: Homo sapiens, MOLT-4, Leukemia, read-out: Log10 LC50 (converted)

| SMILES | CC50 [µM] |
| --- | --- |
| C#Cc1ccc(-n2c(/C=C/c3ccc(C(F)(F)F)cc3)nc3ncccc3c2=O)cc1 [4c, (E)-3-(4-Ethynylphenyl)-2-(4-(trifluoromethyl)styryl)pyrido[2,3-d]pyrimidin-4(3H)-one] | > 100 |

Same assay, conditions: MOLT-4, Leukemia

| SMILES | Log10 TGI50 |
| --- | --- |
| C#Cc1ccc(-n2c(/C=C/c3ccc(C(F)(F)F)cc3)nc3ncccc3c2=O)cc1 [4c, (E)-3-(4-Ethynylphenyl)-2-(4-(trifluoromethyl)styryl)pyrido[2,3-d]pyrimidin-4(3H)-one] | −5.06 |

Test system: SF-268
Assay: SRB 48 h growth assay, CNS SF-268
Type: cell-based, human
Settings: Homo sapiens, SF-268, CNS, read-out: Growth Inhibition GI50

| SMILES | GI50 [µM] |
| --- | --- |
| C#Cc1ccc(-n2c(/C=C/c3ccc(C(F)(F)F)cc3)nc3ncccc3c2=O)cc1 [4c, (E)-3-(4-Ethynylphenyl)-2-(4-(trifluoromethyl)styryl)pyrido[2,3-d]pyrimidin-4(3H)-one] | 2.27 |

Same assay, conditions: Homo sapiens, SF-268, CNS, read-out: Log10 GI50 (converted)

| SMILES | GI50 [µM] |
| --- | --- |
| C#Cc1ccc(-n2c(/C=C/c3ccc(C(F)(F)F)cc3)nc3ncccc3c2=O)cc1 [4c, (E)-3-(4-Ethynylphenyl)-2-(4-(trifluoromethyl)styryl)pyrido[2,3-d]pyrimidin-4(3H)-one] | 2.29 |

Same assay, conditions: Homo sapiens, SF-268, CNS, read-out: Log10 LC50 (converted)

| SMILES | CC50 [µM] |
| --- | --- |
| C#Cc1ccc(-n2c(/C=C/c3ccc(C(F)(F)F)cc3)nc3ncccc3c2=O)cc1 [4c, (E)-3-(4-Ethynylphenyl)-2-(4-(trifluoromethyl)styryl)pyrido[2,3-d]pyrimidin-4(3H)-one] | 24.5 |

Same assay, conditions: SF-268, CNS

| SMILES | Log10 TGI50 |
| --- | --- |
| C#Cc1ccc(-n2c(/C=C/c3ccc(C(F)(F)F)cc3)nc3ncccc3c2=O)cc1 [4c, (E)-3-(4-Ethynylphenyl)-2-(4-(trifluoromethyl)styryl)pyrido[2,3-d]pyrimidin-4(3H)-one] | −5.23 |

Test system: U251
Assay: SRB 48 h growth assay, CNS U251
Type: cell-based, human
Settings: not given

| SMILES | Log10 TGI50 |
| --- | --- |
| C#Cc1ccc(-n2c(/C=C/c3ccc(C(F)(F)F)cc3)nc3ncccc3c2=O)cc1 [4c, (E)-3-(4-Ethynylphenyl)-2-(4-(trifluoromethyl)styryl)pyrido[2,3-d]pyrimidin-4(3H)-one] | −5.50 |

Same assay, conditions: Homo sapiens, U-251, read-out: Growth Inhibition GI50

| SMILES | GI50 [µM] |
| --- | --- |
| C#Cc1ccc(-n2c(/C=C/c3ccc(C(F)(F)F)cc3)nc3ncccc3c2=O)cc1 [4c, (E)-3-(4-Ethynylphenyl)-2-(4-(trifluoromethyl)styryl)pyrido[2,3-d]pyrimidin-4(3H)-one] | 1.67 |

Same assay, conditions: Homo sapiens, U-251, read-out: Log10 GI50 (converted)

| SMILES | GI50 [µM] |
| --- | --- |
| C#Cc1ccc(-n2c(/C=C/c3ccc(C(F)(F)F)cc3)nc3ncccc3c2=O)cc1 [4c, (E)-3-(4-Ethynylphenyl)-2-(4-(trifluoromethyl)styryl)pyrido[2,3-d]pyrimidin-4(3H)-one] | 1.66 |

Same assay, conditions: Homo sapiens, U-251, read-out: Log10 LC50 (converted)

| SMILES | CC50 [µM] |
| --- | --- |
| C#Cc1ccc(-n2c(/C=C/c3ccc(C(F)(F)F)cc3)nc3ncccc3c2=O)cc1 [4c, (E)-3-(4-Ethynylphenyl)-2-(4-(trifluoromethyl)styryl)pyrido[2,3-d]pyrimidin-4(3H)-one] | 5.89 |

Test system: HT-29
Assay: SRB 48 h growth assay, Colon HT-29
Type: cell-based, human
Settings: HT-29, Colon

| SMILES | Log10 TGI50 |
| --- | --- |
| C#Cc1ccc(-n2c(/C=C/c3ccc(C(F)(F)F)cc3)nc3ncccc3c2=O)cc1 [4c, (E)-3-(4-Ethynylphenyl)-2-(4-(trifluoromethyl)styryl)pyrido[2,3-d]pyrimidin-4(3H)-one] | −5.40 |

Same assay, conditions: Homo sapiens, HT-29, Colon, read-out: Growth Inhibition GI50

| SMILES | GI50 [µM] |
| --- | --- |
| C#Cc1ccc(-n2c(/C=C/c3ccc(C(F)(F)F)cc3)nc3ncccc3c2=O)cc1 [4c, (E)-3-(4-Ethynylphenyl)-2-(4-(trifluoromethyl)styryl)pyrido[2,3-d]pyrimidin-4(3H)-one] | 2.03 |

Same assay, conditions: Homo sapiens, HT-29, Colon, read-out: Log10 GI50 (converted)

| SMILES | GI50 [µM] |
| --- | --- |
| C#Cc1ccc(-n2c(/C=C/c3ccc(C(F)(F)F)cc3)nc3ncccc3c2=O)cc1 [4c, (E)-3-(4-Ethynylphenyl)-2-(4-(trifluoromethyl)styryl)pyrido[2,3-d]pyrimidin-4(3H)-one] | 2.04 |

Same assay, conditions: Homo sapiens, HT-29, Colon, read-out: Log10 LC50 (converted)

| SMILES | CC50 [µM] |
| --- | --- |
| C#Cc1ccc(-n2c(/C=C/c3ccc(C(F)(F)F)cc3)nc3ncccc3c2=O)cc1 [4c, (E)-3-(4-Ethynylphenyl)-2-(4-(trifluoromethyl)styryl)pyrido[2,3-d]pyrimidin-4(3H)-one] | 7.76 |

Test system: SK-MEL-2
Assay: SRB 48 h growth assay, Melanoma SK-MEL-2
Type: cell-based, human
Settings: Homo sapiens, SK-MEL-2, Melanoma, read-out: Growth Inhibition GI50

| SMILES | GI50 [µM] |
| --- | --- |
| C#Cc1ccc(-n2c(/C=C/c3ccc(C(F)(F)F)cc3)nc3ncccc3c2=O)cc1 [4c, (E)-3-(4-Ethynylphenyl)-2-(4-(trifluoromethyl)styryl)pyrido[2,3-d]pyrimidin-4(3H)-one] | 2.03 |

Same assay, conditions: Homo sapiens, SK-MEL-2, Melanoma, read-out: Log10 GI50 (converted)

| SMILES | GI50 [µM] |
| --- | --- |
| C#Cc1ccc(-n2c(/C=C/c3ccc(C(F)(F)F)cc3)nc3ncccc3c2=O)cc1 [4c, (E)-3-(4-Ethynylphenyl)-2-(4-(trifluoromethyl)styryl)pyrido[2,3-d]pyrimidin-4(3H)-one] | 2.04 |

Reference: patent publication US9783537B2, “3-(4-ethylnylphenyl) pyridopyrimidinone compounds and process for preparation thereof useful as potential anticancer agents” (Council of Scientific & Industrial Research, priority 2013, dated 2017)
